Experimental data from patent US20230147196A1, “MITOCHONDRIAL DYSFUNCTION IMPROVING AGENT” (priority 2020, published 2023).

Assays:
[1] = test system: hippocampus-derived neurons; test: Neuronopathy model: single neuron-astrocyte coculture treated with Aβ peptide (Aβ25-35), Sholl analysis of dendrites and axons; assay type: cell-based, ICR mouse; details: for neuropathy of nerve axons (branches and elongation, Tau antibody staining, Sholl analysis) / neuropathy of nerve dendrites (branches and elongation, MAP2 antibody staining, Sholl analysis): Aβ25-35 1 μM, test compound 0.3 μM, exposed for three days, FIGS. 2 and 3; for neurotoxicity caused by Aβ: primary neurons, low concentration of 0.3 μM, summary statement
Description: In a neuronopathy model due to Aβ peptide of which a single neuron-astrocyte coculture sample is treated with Aβ peptide, an improvement effect in neurodegeneration of a MKH derivative was evaluated. Since mitochondrial affinity of the derivative and reconvertibility to MKH are expected affect the MKH delivery by an MKH derivative, a cationic derivative (MKH-DMG) presumed to have a high affinity, an anionic derivative (MKH-SUC) having a high intracellular reconversionability, and an oxidant of MKH (MK-4) used in clinical study were evaluated (Chem. 7).
After culturing (2 weeks) astrocytes isolated from the cerebral cortex of 0- to 1-day-old ICR mouse, regions were divided in dots on a slide glass and cultured. After culturing for one more week, hippocampus-derived neurons of 0- to 1-day-old ICR mouse were seeded and cocultured. From day 1 of seeding neuron, Aβ25-35 (1 μM) and a test compound (0.3 μM) were exposed for three days, and morphological change of neurons was observed. Dendrites (MAP2 antibody) and axons (Tau antibody) of nerves were stained by immunostaining and analyzed. Dendrites and axons were evaluated for changes in branches and elongation of dendrites and axons by Sholl analysis method.

neural cells = test: Mitochondrial dysfunction caused by Complex I inhibitor rotenone in neural cells; assay type: cell-based; details: summary statement on the respiratory chain inhibitor tests in neural cells
Description: Effects of an MKH derivative and a PKH derivative to mitochondrial dysfunctions caused by Complex I inhibitor rotenone ([…] Complex II inhibitor (3-nitro propionic acid (3-NP)), Complex III inhibitor (antimycin A), and a depolarizing agent (carbonylcyanide-m-chlorophenylhydrazone, CCCP) in neural cells were evaluated. The effects were evaluated with cell death (viability measurement with cell titer blue), inhibition of ATP production (ATP measurement with cell titer glo), and membrane potential reduction (JC-1 staining: depolarization (green), hyperpolarization (red)).

Row | Compound | neuropathy of nerve axons (branches and elongation, Tau antibody staining, Sholl analysis) [1] | neuropathy of nerve dendrites (branches and elongation, MAP2 antibody staining, Sholl analysis) [1] | neurotoxicity caused by Aβ [1] | mitochondrial function (respiratory chain) damage / mitochondrial dysfunction (membrane potential reduced mitochondria) (neural cells)
1 | CC(C)=CCC/C(C)=C/CC/C(C)=C/CC/C(C)=C/Cc1c(C)c(OC(=O)CN(C)C)c2ccccc2c1OC(=O)CN(C)C [MKH-DMG] | significantly improved | significantly improved | can improve | can improve
2 | CC(C)=CCC/C(C)=C/CC/C(C)=C/CC/C(C)=C/Cc1c(C)c(OC(=O)CCC(=O)O)c2ccccc2c1OC(=O)CCC(=O)O [MKH-SUC] | significantly improved | significantly improved | can improve | can improve
3 | Menaquinone-4 [MK-4, reference compound] | No improvement effect | No improvement effect |  | 
